One assay relates to RS4;11 cells. Kind of assay: Inhibition of proliferation of RS4;11 human acute lymphocytic leukemia cells (CCK-8). The format is cell-based. Particulars: 72 h compound exposure, CCK-8, 5% serum. On the procedure: RS4;11 cells (from ATCC) in logarithmic growth phase and good cell condition were added to a centrifuge tube and centrifuged at 1500 rpm for 3 min in a low speed centrifuge. The supernatant was discarded, and 5 mL of complete medium (RPMI basic medium+10% FBS) was added using a pipette for cell resuspension. The cells were counted using a cell counter, diluted with complete medium to a cell density of 2×10^5 cells/mL, and an equivalent amount of RPMI basic medium was added to adjust the serum concentration to 5% and the cell density to 1×10^5 cells/mL for plate seeding. The cells were seeded on a 96-well plate at 100 μL/well using a pipettor, and incubated in an incubator at 37° C., 5% CO2 with saturated humidity. After 24 h of incubation, compounds were loaded using a nanoliter pipettor, 2 duplicate wells were set for each concentration, and cells without compound were used as negative controls. […] Inhibition rate (%)=(mean value of negative control group−mean value of experimental group)/(mean value of negative control group−mean value of blank group)×100%. A dose-response curve was fitted by four-parameter analysis, with the logarithm of compound concentration serving as abscissa and inhibition rate serving as ordinate, so that IC50 was calculated (Table 1).

The target in the next assay is T1, BCL-2/BAK (Homo sapiens, UniProt P10415).
T1 construct: purchased Cisbio 63ADK000CB01PEG
T1 sequence (P10415 whole entry): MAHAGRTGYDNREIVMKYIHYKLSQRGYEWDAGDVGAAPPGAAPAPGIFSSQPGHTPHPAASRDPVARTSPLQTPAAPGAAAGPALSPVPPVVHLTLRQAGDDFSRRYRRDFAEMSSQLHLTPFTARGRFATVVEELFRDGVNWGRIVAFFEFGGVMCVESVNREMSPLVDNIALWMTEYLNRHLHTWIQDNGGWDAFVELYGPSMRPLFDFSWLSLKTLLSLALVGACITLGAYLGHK
Kind of assay: Inhibitory activity for BCL-2/BAK binding (Cisbio BCL-2/BAK (BH3) binding assay kit). On the procedure:
500 nM Tag1-BCL-2 protein stock solution and 20 μM Tag2-BAK protein stock solution were diluted to 5 nM and 120 nM respectively with dilution buffer in kit (name: BCL-2/BAK (BH3) BINDING ASSAY KITS, cat. No.: 63ADK000CB01PEG, from Cisbio). 5 μL of Tag1-BCL-2 protein diluent was added to each well, then test compounds dissolved with DMSO were added to the wells with a nanoliter pipettor, allowing the final compound concentrations to be 200 nM to 0.0488 nM (4-fold gradient for 7 concentrations in total). Blank control wells (without enzyme) and negative control wells (with enzyme, plus vehicle DMSO) were set, and 2 replicate wells were set. Finally, 5 μL of Tag2-BAK protein diluent was added to each well, and the mixture was mixed well by centrifugation and incubated at 25° C. for 15 min. 100× anti-Tag1-Eu^3+ and 100× anti-Tag2-XL665 were both diluted to 1× working concentration with the detection buffer in the kit. Anti-Tag1-Eu^3+ and anti-Tag2-XL665 were mixed well in a 1:1 ratio, and the mixture was added to wells at 5 μL/well, and incubated at 25° C. for 2 h or more. The plate was read using a PE Envision multi-functional microplate reader ([…], emission: 665 nm) and IC50 (shown in Table 2) was calculated by four-parameter fitting.

With `Cc1cc(C(F)(F)F)ccc1C1=C(CN2CCN(c3ccc(C(=O)NS(=O)(=O)c4ccc(NC[C@@H]5COCCO5)c([N+](=O)[O-])c4)c(Oc4cnc5[nH]ccc5c4)c3)CC2)CCC(C)(C)C1` [Compound 2-1], in the assay on RS4;11 cells, the IC50 (commonly the concentration that gives 50% inhibition) was determined as 4.2 nM.
Consider `COCC(=O)N1CCO[C@@H](CNc2ccc(S(=O)(=O)NC(=O)c3ccc(N4CCN(CC5=C(c6ccc(C(F)(F)F)cc6C)CC(C)(C)CC5)CC4)cc3Oc3cnc4[nH]ccc4c3)cc2[N+](=O)[O-])C1` [Compound 4-1], for which the IC50 in the assay on RS4;11 cells came out at 5.4 nM; on BCL-2/BAK, 0.7 nM.
On BCL-2/BAK, `Cc1cc(C(F)(F)F)ccc1C1=C(CN2CCN(c3ccc(C(=O)NS(=O)(=O)c4ccc(NC[C@@H]5CCCO5)c([N+](=O)[O-])c4)c(Oc4cnc5[nH]ccc5c4)c3)CC2)CCC(C)(C)C1` [Compound 11-1, (S)-4-(4-{[2-(2-methyl-4-trifluoromethylphenyl)-4,4-dimethylcyclohex-1-enyl]methyl}-piperazin-1-yl)-N-({3-nitro-4-[((tetrahydrofuran-2-yl)methyl)amino]phenyl}sulfonyl)-2-(1H-pyrrolo[2,3-b]pyridin-5-yloxy)-benzamide] yielded an IC50 of 1.79 nM.
As for `CC(=O)N1CCO[C@@H](CNc2ccc(S(=O)(=O)NC(=O)c3ccc(N4CCN(CC5=C(c6ccc(C(F)(F)F)cc6C)CC(C)(C)CC5)CC4)cc3Oc3cnc4[nH]ccc4c3)cc2[N+](=O)[O-])C1` [Compound 18-1, (S)-4-(4-{[2-(2-methyl-4-trifluoromethylphenyl)-4,4-dimethylcyclohex-1-enyl]methyl}-piperazin-1-yl)-N-({3-nitro-4-[((4-acetylmorpholin-2-yl)methyl)amino]phenyl}sulfonyl)-2-(1H-pyrrolo[2,3-b]pyridin-5-yloxy)-benzamide], the IC50 turned out to be 5.5 nM in the assay with RS4;11 cells and 1.54 nM at BCL-2/BAK.
Consider `CC(=O)N1CCO[C@H](CNc2ccc(S(=O)(=O)NC(=O)c3ccc(N4CCN(CC5=C(c6ccc(C(F)(F)F)cc6C)CC(C)(C)CC5)CC4)cc3Oc3cnc4[nH]ccc4c3)cc2[N+](=O)[O-])C1` [Compound 19-1, (R)-4-(4-{[2-(2-methyl-4-trifluoromethylphenyl)-4,4-dimethylcyclohex-1-enyl]methyl}-piperazin-1-yl)-N-({3-nitro-4-[((4-acetylmorpholin-2-yl)methyl)amino]phenyl}sulfonyl)-2-(1H-pyrrolo[2,3-b]pyridin-5-yloxy)-benzamide], for which the values for the IC50 in the assay with RS4;11 cells and at BCL-2/BAK were 3.4 nM and 0.97 nM, respectively.
In turn, `Cc1cc(C(F)(F)F)ccc1C1=C(CN2CCN(c3ccc(C(=O)NS(=O)(=O)c4ccc(NC[C@H]5CN(C(=O)C(C)C)CCO5)c([N+](=O)[O-])c4)c(Oc4cnc5[nH]ccc5c4)c3)CC2)CCC(C)(C)C1` [Compound 20-1, (S)-4-(4-{[2-(2-methyl-4-trifluoromethylphenyl)-4,4-dimethylcyclohex-1-enyl]methyl}-piperazin-1-yl)-N-({3-nitro-4-[((4-isobutyrylmorpholin-2-yl)methyl)amino]phenyl}sulfonyl)-2-(1H-pyrrolo[2,3-b]pyridin-5-yloxy)-benzamide] came in with an IC50 on BCL-2/BAK of 2.06 nM. This lies in the single-digit nanomolar range.
On to `Cc1cc(C(F)(F)F)ccc1C1=C(CN2CCN(c3ccc(C(=O)NS(=O)(=O)c4ccc(NC[C@@H]5CN(S(C)(=O)=O)CCO5)c([N+](=O)[O-])c4)c(Oc4cnc5[nH]ccc5c4)c3)CC2)CCC(C)(C)C1` [Compound 23-1, (R)-4-(4-{[2-(2-methyl-4-trifluoromethylphenyl)-4,4-dimethylcyclohex-1-enyl]methyl}-piperazin-1-yl)-N-({3-nitro-4-[((4-(methylsulfonyl)morpholin-2-yl)methyl)amino]phenyl}sulfonyl)-2-(1H-pyrrolo[2,3-b]pyridin-5-yloxy)-benzamide], for which the results for the IC50 in the assay on RS4;11 cells and at BCL-2/BAK were 2.5 nM and 1.1 nM, respectively.

The record behind these values is patent US12319689B2, “Methyl- and trifluoromethyl-containing disubstituted sulfonamide selective BCL-2 inhibitor” (CHIA TAI TIANQING PHARMACEUTICAL GROUP CO., LTD., priority 2019, dated 2025).
